Key:
human CK1 delta = target: T1, human CK1 delta (Homo sapiens, UniProt P48730); assay: FRET fluorescence test (Z'Lyte kinase assay Kit), peptide substrate SER/THR 11; type: biochemical; conditions: peptide substrate 2 μM, ATP at 4 times the KM
T1 construct: purchased Invitrogen Corporation PV3665
Description: The capacity of the compounds of the invention to inhibit the phosphorylation of casein by casein kinase 1 epsilon and delta may be evaluated using a FRET (“Fluorescence Resonance Energy Transfer) fluorescence test with the aid of the “Z'Lyte™ kinase assay Kit” (reference PV3670; Invitrogen Corporation™) according to the manufacturer's instructions.
The casein kinases 1 used are obtained from Invitrogen Corporation (human CK1 epsilon PV3500 and human CK1 delta PV3665).
A peptide substrate, labelled at both ends with a fluorophor donor group (coumarin) and a fluorophor acceptor group (fluorescein) constituting a FRET system is phosphorylated in the presence of ATP by casein kinase 1 epsilon or delta in the presence of increasing concentrations of compounds of the invention.
The mixture is treated with a site-specific protease that specifically cleaves the peptide substrate to form two fluorescent fragments having a large fluorescence emission ratio.
The fluorescence observed is thus related to the capacity of the products of the invention to inhibit the phosphorylation of the peptide substrate by casein kinase 1 epsilon or casein kinase 1 delta.
The compounds of the invention are dissolved at different concentrations starting with a 10 mM stock solution in DMSO diluted in a buffer containing 50 mM HEPS, pH 7.5, 1 m MEGTA, 0.01% Brij-35, 10 mM MgCl2 for casein kinase 1 epsilon and supplemented with Trizma Base (50 mM), pH 8.0, and NaN3 (0.01% final) for casein kinase 1 delta.
The phosphorylation of the peptide substrate SER/THR 11 obtained from Invitrogen Corporation™ is performed at a final concentration of 2 μM. The ATP concentration is 4 times the KM, this value being 2 μM for casein kinase 1 epsilon and 4 μM for casein kinase 1 delta.
The emitted fluorescence is measured at wavelengths of 445 and 520 nm (excitation at 400 nm).

[1] = test system: Mper1-luc Rat-1 (P2C4) fibroblasts; assay: Circadian cell assay (mPer1-luciferase reporter, period prolongation); type: cell-based; conditions: effective concentration that induced a 1-hour prolongation of the circadian period, interpolated from hyperbolic curve
Experimental: Experimental Protocols for Circadian Cell Assay
Mper1-luc Rat-1 (P2C4) fibroblast cultures were prepared by dividing the cultures every 3-4 days (approximately 10-20% of confluence) on 150 cm^2 degassed polystyrene tissue culture flasks (Falcon® #35-5001) and maintained in growth medium [EMEM (Celigro #10-010-CV); 10% foetal bovine serum (FBS; Gibco #16000-044); and 50 I.U./ml of penicillin-streptomycin (Celigro #30-001-CI)] at 37° C. and under 5% CO2.
Cells obtained from Rat-1 fibroblast cultures at 30-50% of confluence as described above were co-transfected with vectors containing the selection marker for resistance to zeocin for a stable transfection and a luciferase reporter gene controlled by the mPer-1 promoter. After 24 to 48 hours, the cultures were divided on 96-well plates and maintained in growth medium supplemented with 50-100 μg/ml of zeocin (Invitrogen® #45-0430) for 10-14 days. The zeocin-resistant stable transfectants were evaluated for the expression of the reporter by adding 100 μM luciferin (Promega® #E1603®) to the growth medium and by assaying the luciferase activity on a TopCount scintillation counter (Packard Model #C384V00). The Rat-1 cell clones expressing both zeocin resistance and lucerifase activity controlled by mPer1 were serum-shock synchronized with 50% horse serum [HS (Gibco® #16050-122)] and the activity of the circadian reporter was evaluated. The P2C4 clone of Mper1-luc Rat-1 fibroblasts was selected to test the compound. Mper1-luc Rat-1 ([…]) fibroblasts at 40-50% of confluence, obtained according to the protocol described above, were plated out onto 96-well opaque tissue culture plates (Perkin Elmer® #6005680). […]
The period analysis was performed either by determining the interval between the relative light emission minima over several days or by Fourier transform. […] The data were analysed by adjusting a hyperbolic curve to the data expressed as change of period (y-axis) as a function of the concentration of the test compound (x-axis) in the XLfit™ software and the CE Delta (t+1 h) was interpolated from this curve.

T1 sequence (P48730 whole entry): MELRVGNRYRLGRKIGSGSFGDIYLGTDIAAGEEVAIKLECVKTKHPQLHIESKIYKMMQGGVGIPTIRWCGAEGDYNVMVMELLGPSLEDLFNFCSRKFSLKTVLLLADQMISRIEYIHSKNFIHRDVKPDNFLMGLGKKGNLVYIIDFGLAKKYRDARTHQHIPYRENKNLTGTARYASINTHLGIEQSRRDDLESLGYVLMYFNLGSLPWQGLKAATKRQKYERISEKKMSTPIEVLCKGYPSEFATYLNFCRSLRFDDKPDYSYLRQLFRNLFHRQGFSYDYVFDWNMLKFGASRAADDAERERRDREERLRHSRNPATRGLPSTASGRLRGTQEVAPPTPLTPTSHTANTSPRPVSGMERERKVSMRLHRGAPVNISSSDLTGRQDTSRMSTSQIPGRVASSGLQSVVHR

IC50 (human CK1 delta): 19 nM
melting point: 261 to 264 °C
Structure (SMILES): Fc1ccc(-c2nc3ccc(N4CCC(N5CCCC5)CC4)nn3c2-c2ccnc3[nH]ccc23)cc1 [Compound 36, 2-(4-Fluorophenyl)-6-(4-pyrrolidin-1-ylpiperidin-1-yl)-3-(1H-pyrrolo[2,3-b]pyridin-4-yl)imidazo[1,2-b]pyridazine]
CE Delta (t + 1 h) [1]: 1 to 7 nM
